Results: patent EP4582426A1, “PAN-KRAS INHIBITOR COMPOUND” (Adlai Nortye Biopharma Co., Ltd., priority 2022, dated 2024)

Key:
[1] = test system: SW480 (G12V); experiment: In vitro cell proliferation inhibition test (CellTiter-Glo Luminescent Cell Viability Assay); format: cell-based; details: SW480 cell line, Large intestine, Colon, KRAS (p.G12V), cells and compounds co-incubated 72 hours
Excerpt: (§1) Due to the diversity of RAS mutations and in order to evaluate the activity of compounds in different RAS mutant cell lines, we selected KRAS^WT, KRAS^G12C, KRAS^G12D), KRAS^G12V and BRAF mutant cell lines (see the table below) for in vitro activity evaluation and screening of compounds .
(§2) Experimental protocol: CellTiter-Glo® Cell Luminescent Viability Assay (Promega)
(§3) According to the doubling time of different cell lines, different numbers of cells (1000-5000 cells/well) were inoculated into 96-well plates containing 180 µl of the corresponding medium, and cultured overnight in a 37°C cell incubator containing 5% CO2. On the second day, the compound to be tested was pre-diluted 3-fold with the medium, the highest concentration was 100 µM, and there were 10 concentration gradients in total; then 20 µl of the medium containing different concentrations of the compound was added to the cells in the 96-well plate to ensure the final concentration of the compound to be up to 10 µM, with 10 concentration gradients of 3-fold dilutions. After co-incubating cells and compounds for 72 hours, the 96-well plate was taken out of the incubator, placed at room temperature for 30 minutes, and then 25 µl CellTiter-Glo® Reagent was added to each well to mix well, and incubated at room temperature for 10 minutes, and then 100 µl of the sample was transferred to a white 96-well plate (OptiPlateTM-96, PerkinElmer), the […] signal value was read using a multi-functional microplate reader (SpectraMax® i3x, Molecular devices). Subsequently, the signal value was standardized, and the four-parameter fitting regression equation was used for curve fitting to calculate the half maximal inhibitory concentration (IC50) of the compound on the cell line. Table 3: Antiproliferative activity of compounds of the present invention on KRAS cell mutants

[2] = test system: AsPC-1 (G12D); experiment: as above; format: cell-based; details: AsPC-1 cell line, Pancreas, KRAS (p.G12D), cells and compounds co-incubated 72 hours
Excerpt: as §1, §2, §3

Row | Compound | IC50 [1] | IC50 [2] | also measured
1 | CCNc1ccc(C#Cc2cnc(C(C)OC)c(-c3c4c5cc(ccc5n3CC)-c3csc(n3)CC(NC(=O)C3C(C)C3C)C(=O)N3CCCC(N3)C(=O)OCC(C)(C)C4)c2)nn1 [32+32, (1r,2R,3S)-N-((6^3S,4S,Z)-1^1-ethyl-1^2-(5-((6-(ethylamino)pyridazin-3-yl)ethynyl)-2-((S)-1-methoxyethyl)pyridin-3-yl)-10,10-dimethyl-5,7-dioxo-6^1,6^2,6^3,6^4,6^5,6^6-hexahydro-1^1H-8-oxa-2(4,2)-thiazola-1(5,3)-indola-6(1,3)-pyridazinacycloundecaphane-4-yl)-2,3-dimethylcyclopropane-1-carboxamide] | 55.4 nM | 15.3 nM | –
2 | CCn1c(-c2cc(C#CC3(C)CN(C)C3)cnc2C(C)OC)c2c3cc(ccc31)-c1csc(n1)CC(NC(=O)C1C(C)C1C)C(=O)N1CCCC(N1)C(=O)OCC(C)(C)C2 (single isomer, unassigned) [Example 19] | 1.5 nM | 2.2 nM | –
3 | CCn1c(-c2cc(C#CCN(C)C)cnc2C(C)OC)c2c3cc(ccc31)-c1csc(n1)CC(NC(=O)C1C(C)C1C)C(=O)N1CCCC(N1)C(=O)OCC(C)(C)C2 [Example 58, (1r,2R,3S)-N-((6^3S,4S,Z)-1^2-(5-(3-(dimethylamino)prop-1-yn-1-yl)-2-((S)-1-methoxyethyl)pyridin-3-yl)-1^1-ethyl-10,10-dimethyl-5,7-dioxo-6^1,6^2,6^3,6^4,6^5,6^6-hexahydro-1^1H-8-oxa-2(4,2)-thiazola-1(5,3)-indola-6(1,3)-pyridazinacycloundecaphane-4-yl)-2,3-dimethylcyclopropane-1-carboxamide] | 0.24 nM | 0.7 nM | –
4 | CCn1c(-c2cc(C#CC3CCN(C)C3)cnc2C(C)OC)c2c3cc(ccc31)-c1csc(n1)CC(NC(=O)C1C(C)C1C)C(=O)N1CCCC(N1)C(=O)OCC(C)(C)C2 (single isomer, unassigned) [Example 18] | 0.42 nM | 3.4 nM | –
5 | CCn1c(-c2cc(C#C[C@@H]3COCCN3C)cnc2[C@H](C)OC)c2c3cc(ccc31)-c1csc(n1)C[C@H](NC(=O)[C@H]1C[C@@H]1C)C(=O)N1CCC[C@H](N1)C(=O)OCC(C)(C)C2 [Example 7, (1S,2S)-N-((63S,4S,Z)-11-ethyl-12-(2-((S)-1-methoxyethyl)-5-(((R)-4-methylmorpholin-3-yl)ethynyl)pyridin-3-yl)-10,10-dimethyl-5,7-dioxo-61,62,63,64,65,66-hexahydro-11H-8-oxa-2(4,2)-Thiazola-1(5,3)-indola-6(1,3)-pyridazinacyclonecaphane-4-yl)-2-methylcyclopropane-1-carboxamide] | 4.6 nM | 5.1 nM | IC50 ([1]; listed as 7'): 830 nM; IC50 ([2]; listed as 7'): 2640 nM
6 | CCn1c(-c2cc(C#CCN3CCOC(CO)C3)cnc2C(C)OC)c2c3cc(ccc31)-c1csc(n1)CC(NC(=O)C1CC1C)C(=O)N1CCCC(N1)C(=O)OCC(C)(C)C2 (single isomer, unassigned) [Example 20] | 8.9 nM | 2.4 nM | –
7 | (1S,2S)-N-((6^3S,4S,Z)-1^2-(5-(3-(dimethylamino)prop-1-yn-1-yl)-2-((S)-1-methoxyethyl)pyridin-3-yl)-1^1-ethyl-10,10-dimethyl-5,7-dioxo-6^1,6^2,6^3,6^4,6^5,6^6-hexahydro-1^1H-8-oxa-2(4,2)-thiazola-1(5,3)-indola-6(1,3)-pyridazinacycloundecaphane-4-yl)-2-methylcyclopropane-1-carboxamide [Example 61] | 1.58 nM | 5 nM | –
8 | CCn1c(-c2cc(C#C[C@@H]3COCCN3C)cnc2[C@H](C)OC)c2c3cc(ccc31)-c1csc(n1)C[C@H](NC(=O)[C@H]1C[C@@H]1C)C(=O)N1CCC[C@H](N1)C(=O)OCC(C)(C)C2 [Example 28, (1S,2S)-N-((6^3S,4S,Z)-1^1-ethyl-1^2-(2-((S)-1-methoxyethyl)-5-(((R)-4-methylmorpholin-3-yl)ethynyl)pyridin-3-yl)-10,10-dimethyl-5,7-dioxo-6^1,6^2,6^3,6^4,6^5,6^6-hexahydro-1^1H-8-oxa-2(4,2)-thiazola-1(5,3)-indola-6(1,3)-pyridazinacycloundecaphane-4-yl)-2-methylcyclopropane-1-carboxamide] | 2.5 nM | 1.9 nM | –
9 | CCn1c(-c2cc(C#CCN3CCCCC3)cnc2[C@H](C)OC)c2c3cc(ccc31)-c1csc(n1)C[C@H](NC(=O)[C@H]1C[C@@H]1C)C(=O)N1CCC[C@H](N1)C(=O)OCC(C)(C)C2 [Example 59, (1S,2S)-N-((6^3S,4S,Z)-1^1-ethyl-1^2-(2-((S)-1-methoxyethyl)-5-(3-(piperidin-1-yl)prop-1-yn-1-yl)pyridin-3-yl)-10,10-dimethyl-5,7-dioxo-6^1,6^2,6^3,6^4,6^5,6^6-hexahydro-1^1H-8-oxa-2(4,2)-thiazola-1(5,3)-indola-6(1,3)-pyridazinacycloundecaphane-4-yl)-2-methylcyclopropane-1-carboxamide] | 1.76 nM | 0.96 nM | –
10 | CCn1c(-c2cc(C#CCN3CCS(=N)(=O)CC3)cnc2C(C)OC)c2c3cc(ccc31)-c1csc(n1)CC(NC(=O)C1CC1C)C(=O)N1CCCC(N1)C(=O)OCC(C)(C)C2 [Example 57, (1S,2S)-N-((6^3S,4S,Z)-1^1-ethyl-1^2-(5-(3-(1-imino-1-oxido-1l6-thiomorpholino)prop-1-yn-1-yl)-2-((S)-1-methoxyethyl)pyridin-3-yl)-10,10-dimethyl-5,7-dioxo-6^1,6^2,6^3,6^4,6^5,6^6-hexahydro-1^1H-8-oxa-2(4,2)-thiazola-1(5,3)-indola-6(1,3)-pyridazinacycloundecaphane-4-yl)-2-methylcyclopropane-1-carboxamide] | 2 nM | 1.9 nM | –
11 | CCn1c(-c2cc(C#CC3CN(C)CCO3)cnc2C(C)OC)c2c3cc(ccc31)-c1csc(n1)CC(NC(=O)C1CC1C)C(=O)N1CCCC(N1)C(=O)OCC(C)(C)C2 (single isomer, unassigned) [Example 6] | 18.5 nM | 14 nM | IC50 ([1]; listed as 6'): 1830 nM; IC50 ([2]; listed as 6'): 3960 nM
12 | CCn1c(-c2cc(C#CCCN3CCOCC3)cnc2[C@H](C)OC)c2c3cc(ccc31)-c1csc(n1)C[C@H](NC(=O)[C@H]1C[C@@H]1C)C(=O)N1CCC[C@H](N1)C(=O)OCC(C)(C)C2 (single isomer, unassigned) [Example 5] | 24.6 nM | 3220 nM | IC50 ([1]; listed as 5'): 2020 nM
13 | CCn1c(-c2cc(C#CCN(C)C3CCOCC3)cnc2C(C)OC)c2c3cc(ccc31)-c1csc(n1)CC(NC(=O)C1C(C)C1C)C(=O)N1CCCC(N1)C(=O)OCC(C)(C)C2 [Example 36, (1r,2R,3S)-N-((6^3S,4S,Z)-1^1-ethyl-1^2-(2-((S)-1-methoxyethyl)-5-(3-(methyl(tetrahydro-2H-pyran-4-yl)amino)prop-1-yn-1-yl)pyridin-3-yl)-10,10-dimethyl-5,7-dioxo-6^1,6^2,6^3,6^4,6^5,6^6-hexahydro-1^1H-8-oxa-2(4,2)-thiazola-1(5,3)-indola-6(1,3)-pyridazinacycloundecaphane-4-yl)-2,3-dimethylcyclopropane-1-carboxamide] | 0.54 nM | 0.73 nM | –
14 | CCn1c(-c2cc(C#CCN3CCOCC3)cnc2[C@H](C)OC)c2c3cc(ccc31)-c1csc(n1)C[C@H](NC(=O)[C@H]1C[C@@H]1C)C(=O)N1CCC[C@H](N1)C(=O)OCC(C)(C)C2 (single isomer, unassigned) [Example 1] | 1.02 nM | 0.92 nM | IC50 ([1]; listed as 1'): 343 nM; IC50 ([2]; listed as 1'): 582 nM
15 | (1S,2S)-N-((6^3S,4S,Z)-1^1-ethyl-1^2-(2-((S)-1-methoxyethyl)-5-(pyrimidin-5-ylethynyl)pyridin-3-yl)-10,10-dimethyl-5,7-dioxo-6^1,6^2,6^3,6^4,6^5,6^6-hexahydro-1^1H-8-oxa-2(4,2)-thiazola-1(5,3)-indola-6(1,3)-pyridazinacycloundecaphane-4-yl)-2-methylcyclopropane-1-carboxamide [Example 22] | 19.2 nM | 6.5 nM | –
16 | CCn1c(-c2cc(C#CC3CCCN3C)cnc2C(C)OC)c2c3cc(ccc31)-c1csc(n1)CC(NC(=O)C1C(C)C1C)C(=O)N1CCCC(N1)C(=O)OCC(C)(C)C2 [Example 11, (1r,2R,3S)-N-((63S,4S,Z)-11-ethyl-12-(2-((S)-1-methoxyethyl)-5-(((S)-1-methylpyrrolidin-2-yl)ethynyl)pyridin-3-yl)-10,10-dimethyl-5,7-dioxo-61,62,63,64,65,66-hexahydro-11H-8-oxa-2(4,2)-thiazola-1(5,3)-indola-6(1,3)-pyridazinacyclonecaphane-4-yl)-2,3-dimethylcyclopropane-1-carboxamide] | – | 1.7 nM | –
